Consider two compounds from patent publication US10369139B2, “Crystalline compound as semicarbazide-sensitive amine oxidase (SSAO) enzyme inhibitor” (BENEVOLENTAI CAMBRIDGE LIMITED, priority 2015, dated 2019).

Holding throughout (type): physicochemical
Series [1] can be described thus: Hygroscopicity on storage at controlled temperature/relative humidity (Table 2). From the text:
Crystalline mesylate salt was isolated and characterised using some or all of XRPD, ^1H NMR, DSC, TGA, GVS, IC, PLM, HSM, HPLC and KF (see Table 2).

The nature of series [2]: Stability during long term storage, assessed by HPLC. As to conditions: double LDPE liners, desiccant pouch, heat-sealed foil bag, HDPE keg. How it is done:
Purity analysis was performed on an Agilent HP1100 series system equipped with a diode array detector and using ChemStation software vB.02.01-SR1 using the method detailed below (Table 1).
(§1) Crystalline (3S)-Tetrahydrofuran-3-yl (4S)-4-isopropyl-1,4,6,7-tetrahydro-5H-imidazo[4,5-c]pyridine-5-carboxylate mesylate was also assessed for stability and hygroscopicity when dispensed in 3 g aliquots in double LDPE liners, sealed with cable tie and placed, with a desiccant pouch into a foil bag, which was subsequently heat-sealed. The foil bag was then placed into an HDPE keg fitted with an HDPE lid. These conditions mirror typical GMP level storage conditions. Stability was assessed by HPLC and hygroscopicity was assessed by Karl Fisher (KF) titration.

Series [3] can be described thus: Hygroscopicity during long term storage, assessed by Karl Fischer titration. As to conditions: double LDPE liners, desiccant pouch, heat-sealed foil bag, HDPE keg. How it is done:
The water content of each sample was measured on a Mettler Toledo DL39 Coulometer using Hydranal Coulomat AG reagent and an argon purge. Weighed solid samples were introduced into the vessel on a platinum TGA pan which was connected to a subaseal to avoid water ingress. Approx 10 mg of sample was used per titration and duplicate determinations were made.
as §1

Where [4] appears, read: after 6 months at 40° C./75% RH.

Molecules are shown by their SMILES. Counter-ions that a name gives are not always drawn.

In the case of `CC(C)[C@H]1c2[nH]cnc2CCN1C(=O)O[C@H]1CCOC1` [Crystalline mesylate salt, (3S)-Tetrahydrofuran-3-yl (4S)-4-isopropyl-1,4,6,7-tetrahydro-5H-imidazo[4,5-c]pyridine-5-carboxylate, Methananesulfonic Acid Salt], the “Hygroscopicity (time after which the sample deliquesced)” value in series [1] (40° C./75% RH) came to 3 days. For the same compound, in series [1] (temperature of 40° C., relative humidity of 75%), the “Stability of the crystalline salt on storage (reduced hygroscopicity)” value was “up to three days”. The “Degradation (HPLC)” value in series [2] (setting [4]) and in series [2] (over 3 years at 25° C./60% RH) was 0.1% each time. Further, the results for the “Water uptake (KF)” value in series [3] (setting [4]) and in series [3] (over 3 years at 25° C./60% RH) were 0.1% and “no water uptake”, respectively.

As for `CC(C)[C@H]1c2[nH]cnc2CCN1C(=O)O[C@H]1CCOC1` [Free base, (3S)-Tetrahydrofuran-3-yl (4S)-4-isopropyl-1,4,6,7-tetrahydro-5H-imidazo[4,5-c]pyridine-5-carboxylate], the “Hygroscopicity (time in which the sample deliquesced)” value in series [1] (25° C./60% RH) is reported as 25° C./60% RH in <24 h.
